For 30 compounds, IC50 results are on record in US9328099B2, “Cyanomethylpyrazole carboxamides as janus kinase inhibitors” (Merck Sharp & Dohme Corp., priority 2011, dated 2016).

The test concerns the target JAK1 (Homo sapiens (Human), UniProt P23458). The test is described as follows: Jak Biochemical HTRF Assay, JAK1. The settings on record: read-out: JAK1 IC50. The source says: Jak Biochemical HTRF Assay Protocol
Subsequent reagent additions employed an Agilent Bravo.

[1] abbreviates: HTRF biochemical assay, GST-tagged catalytic domain, top concentration tested […].

Structures are written as SMILES. Read-outs that look alike come from different tables or passages of the source.

JAK1, sequence (P23458 875-1153): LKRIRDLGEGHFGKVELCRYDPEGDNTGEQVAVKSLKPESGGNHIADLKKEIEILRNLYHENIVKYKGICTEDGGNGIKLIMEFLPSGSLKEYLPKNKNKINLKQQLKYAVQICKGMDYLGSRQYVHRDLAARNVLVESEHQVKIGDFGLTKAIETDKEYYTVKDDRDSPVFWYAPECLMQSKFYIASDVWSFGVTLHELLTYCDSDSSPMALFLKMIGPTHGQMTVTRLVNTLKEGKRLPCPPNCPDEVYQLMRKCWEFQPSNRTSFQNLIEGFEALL

On to `N#CCC1(n2cc(C(N)=O)c(Nc3ccc(F)cc3)n2)CCN(c2ccc(F)nc2)CC1` [Example 3-22, 1-[4-(cyanomethyl)-1-(6-fluoropyridin-3-yl)piperidin-4-yl]-3-[(4-fluorophenyl)amino]-1H-pyrazole-4-carboxamide], for which the IC50 under setting [1] worked out at 0.4 nM. Same read-out and setting: with `CC(F)(F)C(=O)N1CC[C@@](CC#N)(n2cc(C(N)=O)c(Nc3ccc(F)nc3)n2)[C@@H](F)C1` (single isomer, unassigned) [Example 43-4, 1-((3R,4R or 3S,4S)-4-(cyanomethyl)-1-(2,2-difluoropropanoyl)-3-fluoropiperidin-4-yl)-3-((6-fluoropyridin-3-yl)amino)-1H-pyrazole-4-carboxamide] the figure was 0.05 nM; with `N#CCC1(n2cc(C(N)=O)c(Nc3ccnc(F)c3)n2)CCC(Nc2ccccn2)CC1` (stereo not drawn) [Example 40-4, Cis or trans 1-[1-(cyanomethyl)-4-(pyridin-2-ylamino)cyclohexyl]-3-[(2-fluoropyridin-4-yl)amino]-1H-pyrazole-4-carboxamide], 102 nM. Take `N#CCC1(n2cc(C(N)=O)c(Nc3ccc(S(=O)(=O)C(F)F)cc3)n2)CCC(Nc2ccccc2O)CC1` (stereo not drawn) [Example 40-48, Cis or trans 1-{1-(cyanomethyl)-4-[(2-hydroxyphenyl)amino]cyclohexyl}-3-({4-[(difluoromethyl)sulfonyl]phenyl}amino)-1H-pyrazole-4-carboxamide]: the concentration for half-maximal inhibition (IC50) is 0.4 nM. With `N#CCC1(n2cc(C(N)=O)c(Nc3ccc(OC4CCC4)nc3)n2)CCN(C(=O)OCC(F)F)CC1` [Example 9-37, 2,2-difluoroethyl 4-(4-carbamoyl-3-{[6-(cyclobutyloxy)pyridin-3-yl]amino}-1H-pyrazol-1-yl)-4-(cyanomethyl)piperidine-1-carboxylate], under setting [1], the half-maximal inhibitory concentration (IC50) amounted to 0.2 nM. The same measure, in the same setting: the value for `N#CCC1(n2cc(C(N)=O)c(Nc3ccnc(F)c3)n2)CCN(CCc2ccccc2)CC1` [Example 22-64, 1-[4-(cyanomethyl)-1-(2-phenylethyl)piperidin-4-yl]-3-[(2-fluoropyridin-4-yl)amino]-1H-pyrazole-4-carboxamide] was 4 nM; that for `N#CCC1(n2cc(C(N)=O)c(Nc3ccccc3)n2)CCN(C(=O)c2cnccn2)CC1` [Example 34-11, 1-[4-(cyanomethyl)-1-(pyrazin-2-ylcarbonyl)piperidin-4-yl]-3-(phenylamino)-1H-pyrazole-4-carboxamide] was 12 nM; that for `N#CCC1(n2cc(C(N)=O)c(Nc3ccnc(F)c3)n2)CCN(Cc2ccc(O)nc2)CC1` [Example 22-68, 1-{4-(cyanomethyl)-1-[(6-hydroxypyridin-3-yl)methyl]piperidin-4-yl}-3-[(2-fluoropyridin-4-yl)amino]-1H-pyrazole-4-carboxamide] was 0.1 nM. On the same count and under the same terms, with `CC(C)(C)OC(=O)N1CCC(CC#N)(n2cc(C(N)=O)c(Nc3ccc(S(=O)(=O)C(F)(F)F)cc3)n2)CC1` [Example 9-15, tert-butyl 4-[4-carbamoyl-3-({4-[(trifluoromethyl)sulfonyl]phenyl}amino)-1H-pyrazol-1-yl]-4-(cyanomethyl)piperidine-1-carboxylate] the figure was 2 nM. On the same count and under the same terms, with `N#CCC1(n2cc(C(N)=O)c(Nc3ccc(C4CC4)nc3)n2)CCN(C(=O)OCC(F)F)CC1` [Example 9-40, 2,2-difluoroethyl 4-{4-carbamoyl-3-[(6-cyclopropylpyridin-3-yl)amino]-1H-pyrazol-1-yl}-4-(cyanomethyl)piperidine-1-carboxylate] the figure was 0.7 nM; with `CC(C)(C)OC(=O)N1CCC(CC#N)(n2cc(C(N)=O)c(Nc3ccnc(C(F)(F)F)c3)n2)CC1` [Example 9-23, tert-butyl 4-(4-carbamoyl-3-{[2-(trifluoromethyl)pyridin-4-yl]amino}-1H-pyrazol-1-yl)-4-(cyanomethyl)piperidine-1-carboxylate], 0.4 nM. As for `CS(=O)(=O)c1ccc(Nc2nn(C3(CC#N)CN(C(=O)OC4CCCC4)C3)cc2C(N)=O)cc1` [Example 30-74, cyclopentyl 3-(4-carbamoyl-3-{[4-(methylsulfonyl)phenyl]amino}-1H-pyrazol-1-yl)-3-(cyanomethyl)azetidine-1-carboxylate], under setting [1], the IC50 was found to be 6 nM. The same measure, in the same setting: with `N#CCC1(n2cc(C(N)=O)c(Nc3ccccc3)n2)CCN(C(=O)Nc2ccc(C#N)cc2)CC1` [Example 38-47, 4-[4-carbamoyl-3-(phenylamino)-1H-pyrazol-1-yl]-4-(cyanomethyl)-N-(4-cyanophenyl)piperidine-1-carboxamide] the figure was 0.2 nM; with `N#CCC1(n2cc(C(N)=O)c(Nc3ccc(F)cc3)n2)CCC(NCc2ccc(C#N)cc2)CC1` (stereo not drawn) [Example 40-97, Cis or trans 1-{4-[(4-cyanobenzyl)amino]-1-(cyanomethyl)cyclohexyl}-3-[(4-fluorophenyl)amino]-1H-pyrazole-4-carboxamide], 25 nM. For `N#CCC1(n2cc(C(N)=O)c(Nc3ccnc(F)c3)n2)CCC(Nc2ccccc2F)CC1` (stereo not drawn) [Example 40-24, Cis or trans 1-{1-(cyanomethyl)-4-[(2-fluorophenyl)amino]cyclohexyl}-3-[(2-fluoropyridin-4-yl)amino]-1H-pyrazole-4-carboxamide], the concentration for half-maximal inhibition (IC50) under setting [1] is 8 nM. Still for that read-out and setting: the value for `N#CCC1(n2cc(C(N)=O)c(Nc3ccccc3)n2)CN(C(=O)OCCc2ccccc2)C1` [Example 30-58, 2-phenylethyl 3-[4-carbamoyl-3-(phenylamino)-1H-pyrazol-1-yl]-3-(cyanomethyl)azetidine-1-carboxylate] was 76 nM; that for `N#CCC1(n2cc(C(N)=O)c(Nc3ccc(C(F)(F)F)cc3)n2)CCC(N2CC(F)C2)CC1` (stereo not drawn) [Example 39-2, 1-[1-(cyanomethyl)-4-(3-fluoroazetidin-1-yl)cyclohexyl]-3-{[4-(trifluoromethyl)phenyl]amino}-1H-pyrazole-4-carboxamide] was 0.1 nM. Same read-out and setting: with `CC(C)(O)c1cccc(N2CCC(CC#N)(n3cc(C(N)=O)c(Nc4ccc(F)cc4)n3)CC2)n1` [Example 3-7, 1-{4-(cyanomethyl)-1-[6-(1-hydroxy-1-methylethyl)pyridin-2-yl]piperidin-4-yl}-3-[(4-fluorophenyl)amino]-1H-pyrazole-4-carboxamide] the figure was 0.3 nM; with `N#CCC1(n2cc(C(N)=O)c(Nc3ccccc3)n2)CCN(S(=O)(=O)c2ccc(C(F)(F)F)cc2)CC1` [Example 37-13, 1-[4-(cyanomethyl)-1-{[4-(trifluoromethyl)phenyl]sulfonyl}piperidin-4-yl]-3-(phenylamino)-1H-pyrazole-4-carboxamide], 3 nM; with `N#CCC1(n2cc(C(N)=O)c(Nc3ccnc(F)c3)n2)CCN(C(=O)OC2CCOC2)CC1` (single isomer, unassigned) [Example 49-2, (3S or 3R)-tetrahydrofuran-3-yl 4-{4-carbamoyl-3-[(2-fluoropyridin-4-yl)amino]-1H-pyrazol-1-yl}-4-(cyanomethyl)piperidine-1-carboxylate], 0.4 nM. Still for that read-out and setting: with `CNC1CCC(CC#N)(n2cc(C(N)=O)c(Nc3ccc(F)cc3)n2)CC1` (stereo not drawn) [Example 40-78, Cis or trans 1-[1-(cyanomethyl)-4-(methylamino)cyclohexyl]-3-[(4-fluorophenyl)amino]-1H-pyrazole-4-carboxamide] the figure was 12 nM; with `CS(=O)(=O)c1ccc(Nc2nn(C3(CC#N)CCOCC3)cc2C(N)=O)cc1` [Example 4-5, 1-[4-(cyanomethyl)tetrahydro-2H-pyran-4-yl]-3-{[4-(methylsulfonyl)phenyl]amino}-1H-pyrazole-4-carboxamide], 22 nM.

With `N#CCC1(n2cc(C(N)=O)c(Nc3ccc(S(=O)(=O)C(F)F)cc3)n2)CCC(Nc2cccnc2)CC1` (stereo not drawn) [Example 40-8, Cis or trans 1-[1-(cyanomethyl)-4-(pyridin-3-ylamino)cyclohexyl]-3-({4-[(difluoromethyl)sulfonyl]phenyl}amino)-1H-pyrazole-4-carboxamide], the half-maximal inhibitory concentration (IC50) amounted to 0.3 nM.

For `COc1ccccc1CN1CCC(CC#N)(n2cc(C(N)=O)c(Nc3ccnc(F)c3)n2)CC1` [Example 22-66, 1-[4-(cyanomethyl)-1-(2-methoxybenzyl)piperidin-4-yl]-3-[(2-fluoropyridin-4-yl)amino]-1H-pyrazole-4-carboxamide], under setting [1], the IC50 stood at 2 nM. Same read-out and setting: the value for `CCOC(=O)C(C)NC(=O)N1CC(CC#N)(n2cc(C(N)=O)c(Nc3ccccc3)n2)C1` (stereo not drawn) [Example 38-9, ethyl N-({3-[4-carbamoyl-3-(phenylamino)-1H-pyrazol-1-yl]-3-(cyanomethyl)azetidin-1-yl}carbonyl)alaninate] was 38 nM; that for `N#CCC1(n2cc(C(N)=O)c(Nc3ccc(F)cc3)n2)CCN(c2cncnc2)CC1` [Example 3-24, 1-[4-(cyanomethyl)-1-pyrimidin-5-ylpiperidin-4-yl]-3-[(4-fluorophenyl)amino]-1H-pyrazole-4-carboxamide] was 0.1 nM; that for `N#CCC1(n2cc(C(N)=O)c(Nc3ccc(S(=O)(=O)C(F)F)cc3)n2)CCC(N2CC(F)C2)CC1` (stereo not drawn) [Example 40-105, Cis or trans 1-[1-(cyanomethyl)-4-(3-fluoroazetidin-1-yl)cyclohexyl]-3-({4-[(difluoromethyl)sulfonyl]phenyl}amino)-1H-pyrazole-4-carboxamide] was 0.08 nM.

`CC(C)(O)c1ccc(Nc2nn(C3(CC#N)CCN(C(=O)OCC(F)(F)F)CC3)cc2C(N)=O)cn1` [Example 10-1, 2,2,2-Trifluoroethyl 4-(4-carbamoyl-3-(6-(2-hydroxypropan-2-yl)pyridin-3-ylamino)-1H-pyrazol-1-yl)-4-(cyanomethyl)piperidine-1-carboxylate]: the IC50 under setting [1] was 0.1 nM. The same measure, in the same setting: with `CC(C)(C)OC(=O)C1CCC(CC#N)(n2cc(C(N)=O)c(Nc3ccccc3)n2)CC1` (stereo not drawn) [Example 2-18, tert-butyl 4-[4-carbamoyl-3-(phenylamino)-1H-pyrazol-1-yl]-4-(cyanomethyl) cyclohexanecarboxylate] the figure was 3 nM; with `N#CCC1(n2cc(C(N)=O)c(Nc3ccc(F)cc3)n2)CCC(NCC(F)(F)F)CC1` (stereo not drawn) [Example 40-101, Cis or trans 1-{1-(cyanomethyl)-4-[(2,2,2-trifluoroethyl)amino]cyclohexyl}-3-[(4-fluorophenyl)amino]-1H-pyrazole-4-carboxamide], 18 nM.

For orientation: IC50 means the concentration needed to halve the response being measured.
